The test system of data set [1] is MDA-MB-435 (HER2+). Briefly: Targeted toxicity, cell survival by MTT assay. It is filed as cell-based, human. As to conditions: Dox 0.5 μM; HerPBK10 0.1 μM; day 3. How it is done:
(§1) FIG. 7 illustrates targeted toxicity. […] Cell titer was determined by metabolic (i.e. MTT) assay. FIG. 7 upper panel illustrates the effect of HerDox on MDA-MB-231 (HER2−) and MDA-MB-435 (HER2+) cell survival. Relative surviving cell numbers are represented as a % of corresponding untreated cells. […] Relative survival (as % of untreated cells) is shown for Day 3 of treatment.
FIG. 8 illustrates receptor specificity. MDA-MB-435 (HER2+) cells were incubated with free ligand (eHRG) at 10× molar excess of HerDox for one hour at 4° C. Media was aspirated to remove free eHRG and fresh media containing HerDox (0.5 μM) was added to cells. Cell survival was measured by MTT assay and represented as a % of relative untreated cell numbers.
(§2) N=3. […] Bar, about 4 μm. […] (E) compares HerDox and Dox on off-target tissue. […] Green fluorescence in nuclei indicates apoptosis (positive TUNEL stain).
(§3) By three days, HerDox reduced HER2+ cell numbers by over 75% whereas HER2− cell survival was unaffected (FIG. 7). […] These findings emphasize the importance of targeting by showing that the untargeted drug affects nontarget (i.e. HER2−) cells. […] To test receptor targeting, the inventors used free heregulin ligand (Her or eHRG) as a competitive inhibitor. […] As a final in vitro challenge, the inventors tested whether HerDox induces toxicity specifically to HER2+ cells in a mixed culture of HER2+ and HER2− breast cancer cells. To do this, the inventors produced a HER2− cell line tagged with green fluorescent protein (GFP) for cell identification in the mixed culture (FIG. 9-A). […] Altogether, these findings indicate that HerDox has the capacity to preferentially target toxicity to HER2+ cells. […] In serum-containing media, no such loss from HerDox is detectable. […] Co-migration of HerPBK10 bands further verified that the conjugates remained intact in the cell media.
Background: Formazan colour is commonly taken as a measure of viable cells.

For data set [2], the system named is HER2+ tumors (MDA-MB-435). Briefly: In vivo tumor toxicity (tumor growth). More on the design: species or system mouse. As to conditions: 0.004 mg/kg with respect to Dox, daily tail vein injections for 7 days.
The test system of data set [3] is human cardiosphere-derived cells (CDCs). Description: Human CDC viability. As to conditions: escalating concentrations, 48 hour exposure. How it is done:
Control groups received saline or HerPBK10 at equivalent concentration to HerMn. Treatments began at ˜200 mm^3 average tumor volume. Tumor volumes were measured before (day 1), during (day 3), and after (days 8, 15, and 22) injections of reagents. N=8-10 tumors/group. *p<0.05 (one-way ANOVA). […] N=3 per conc, from 3 separate experiments.
To assess translatability, the viability of human cardiosphere-derived cells (CDCs) in the presence of HerGa and/or HerMn was examined.

Data set [4] deals with MDA-MB-231 (HER2−). Description: Targeted toxicity, cell survival by MTT assay. The format is cell-based, human. As to conditions: 0.5 μM with respect to Dox; HerPBK10 0.1 μM; day 3. How it is done:
as §1, §2, §3

In data set [5] the test system is primary tumor cells from a surgical specimen of a HER2+ patient. Description: Binding to primary human tumor cells. As to conditions: elevated HER3, very low HER2. How it is done:
(§4) N=3. *, p<0.05 compared to parental. […] N=3. *, p<0.05 compared to parental.
(§5) Parental lines were exposed to Tz for 24 hours and then measured cell surface HER3 levels in comparison to non-treated parental cells. […] As a means of evaluating whether the nanoparticles described herein are capable of recognizing HER3 on human tissue, breast tumor tissue was obtained from a surgical specimen of a HER2+ patient and examined whether HerPBK10 could bind this tissue via HER3.

Data set [6] relates to HER3 on 4T1 mouse mammary tumor cells. Description: Binding of HerPBK10 to mouse mammary tumor cells. The text has this: (A) is an amino acid sequence alignment of domains I-II (heregulin-binding domain) of human (SEQ ID NO:13) and mouse HER3 (SEQ ID NO:14). (B) compares relative HER3 levels on different cell lines, detected by ELISA (without permeabilization) using an anti-HER3 antibody that cross-reacts with both human and mouse HER3 (1B2E; Cell Signaling Technologies). […] N=3. *, p<0.05 compared to HerPBK10 alone.
Mouse 4T1 cells, obtained from a BALB/c mouse mammary tumor, are triple-negative and have been used as a syngeneic TNBC model in BALB/c mice. […] The receptor-specific binding of HerPBK10 to mouse HER3 reflects the high level of amino acid sequence identity between mouse and human HER3: 91% identity for the entire protein and 94% in the heregulin-binding region (extracellular domains I and II) (FIG. 32-A). […] Importantly, human BT-549 cells, which are also derived from a TNBC, display elevated HER3 on the cell surface (FIG. 32-B) and provide an additional TNBC cell line to target.

The test system of data set [7] is MDA-MB-435 cells. Briefly: HerPBK10 binding to cells in human serum (ELISA). As to conditions: 1.2 μg/well, sera of 5 HER2+ patients and age-matched controls. How it is done: FIG. 16 illustrates HerPBK10 binding to MDA-MB-435 cells in human serum from HER2+ or HER2− breast cancer patients. Cells were treated with HerPBK10 (1.2 μg/well) in media containing human serum from each of 5 HER2+ breast cancer patients or age matched HER2− controls, both obtained pre-chemotherapy treatment. Cells were processed for ELISA using an antibody directed at HerPBK10. Control (C) wells receiving HerPBK10 in media containing bovine serum without or with 100× molar excess competitive ligand inhibitor (+Her) are indicated by open bars. Patient sera were provided by the WCRI tissue bank at Cedars-Sinai Medical Center. N=3 wells per treatment.
To determine whether HerPBK10 competes with circulating ligand that may be present in serum, the inventors tested HerPBK10 binding to HER2+ breast cancer cells in human serum obtained from HER2+ patients. The Women's Cancer Research Institute at Cedars-Sinai occasionally acquires limited quantities of patient serum, of which sera from HER2+ patients comprises an even smaller minority. […] Here, the inventors replaced the bovine serum in the routine culturing media with the human serum obtained from the acquired patient samples to assess whether the human serum, especially from HER2+ patients, inhibits cell binding. […]
In general terms: In an ELISA, binding on a coated surface is turned into a signal by an enzyme label.

For data set [8], the system named is HER2+ tumor. Description: Biodistribution of labeled HerPBK10, Tz and BSA. The format is in vivo, mouse. As to conditions: tail vein, four hours after injection. How it is done:
(§6) (A) compares biodistribution and intracellular trafficking of HerPBK10 and Tz.
Fluorescently-labeled HerPBK10 was prepared to assess its bio-distribution and cell uptake in comparison to labeled Tz. Equivalent doses of each reagent were injected into the tail veins of HER2+ tumor bearing mice. Tissues were harvested at four hours after injection for imaging. Both reagents were compared to a labeled non-targeted protein, BSA.

Data set [9] has as its system HER2+ cells. Description: ELISA of HerPBK10 binding to HER2+ cells with competitive inhibitors. The text has this: (§7) Un, no HerPBK10. […] HerPBK10 binding to HER3 is not inhibited by patient serum.
(§8) Binding was also not inhibited by a HER4 peptide or betacellulin (which blocks HER4) (FIG. 26-B).

Data set [10] relates to HER2+ MDA-MB-435 cells. Briefly: Cell uptake (fluorescence confocal microscopy). It is filed as cell-based, human. As to conditions: after cell surface clustering. How it is done: as §6
The uptake in HER2+ MDA-MB-435 cells were also evaluated.

The subject of data set [11] is HER3 on parental cell lines (BT474 and SKBR3). Briefly: Tz pre-treatment: cell surface HER3 and HerPBK10 binding. It is filed as cell-based, human. As to conditions: 0.5 mg/mL Tz for 24 hours. How it is done: N=3. […] N=3. […] N=3. […] N=3. […] N=3. […] N=3.
as §4
The parental and resistant cell lines were pretreated with Tz for 4 or 24 hours before HerDox treatment.
as §5

The target in data set [12] is T1, HER3 (human ErbB3 extracellular domain) (Homo sapiens, UniProt P21860).
T1 construct: immobilized peptide containing the extracellular domain of human HER3; purchased Prospec
Description: ELISA of HerPBK10 binding to immobilized HER3.
Source text: as §7, §8

A short description of data set [13]: Neutralizing antibody formation after repeat dosing. It is filed as in vivo, mouse. As to conditions: repeat dosing at therapeutic and 10-fold higher levels, immunocompetent mice. The text has this: Therefore, receptor binding is not inhibited by patient sera.

Entries after “also recorded” stand apart in the source; their conditions may differ. Where only a bound is given, the exact number is not on record here.

For “HerPBK10: receptor binding domain of heregulin fused to adenovirus penton base protein modified by a C-terminal decalysine”, the “effect on HER2+ cell survival” value in data set [1] is recorded as “had no effect on either cell line; also recorded: does not induce cell death”. Further, the “effect on tumor growth” value in data set [2] was “had no effect”. Also, the “effect on CDC viability” value in data set [3] is recorded as “no detectable effect on CDC viability”. In addition, the “effect on HER2− cell survival” value in data set [4] is recorded as “had no effect on either cell line”. In addition, in data set [5], the “binding to disaggregated patient tumor cells” value is reported as “exhibiting greater binding than Tz; also recorded: showing greater binding than Tz”. In addition, in [6], the “binding to 4T1 cells with human HER3 peptide” value is recorded as “competitively inhibited by human HER3 peptide” and the “recognition of HER3 on 4T1 cells” value is reported as “is recognized by HerPBK10”. In addition, the “cell binding in serum from HER2+ patients, HER2− patients or bovine serum” value in [7] is given as “no significant differences; also recorded: did not prevent HerPBK10 binding”. For the same substance, in data set [8], the “delivery to the heart, spleen, and muscle” value is recorded as “nearly absent delivery”; the lung delivery entry is on record as “no lung delivery”; the tumor accumulation result is “equivalent levels of tumor accumulation”. The “binding to HER2+ cells with pertuzumab (Pz)” value in data set [9] is “did not prevent HerPBK10 binding”. For the same substance, the “binding to HER2+ cells after pre-adsorption with free HER3 peptide” value in data set [9] (1× and 10× molar ratio) is recorded as “also inhibited HerPBK10 binding”. In addition, the “binding to HER2+ cells with HER4 peptide or betacellulin” value in [9] (betacellulin 10 μg/mL) is recorded as “not inhibited”. In addition, in [10], the “time to significant endocytosis” value was no more than 45 min. Besides, the “HerPBK10 binding to Tz pre-treated parental cells” value in data set [11] is reported as “augments HerPBK10 binding; also recorded: proportionately increased”. In data set [12], the “binding to immobilized HER3 after pre-adsorption with free HER3 peptide” value is recorded as “inhibited by pre-adsorption of HerPBK10 with free HER3 peptide” and the “binding to immobilized HER3 peptide” value is given as “binds to an immobilized peptide containing the extracellular domain of human HER3”. Also, in data set [13], the “neutralizing antibody formation against the protein” value is reported as “did not yield detectable neutralizing antibody formation”.

Values taken from patent US9850293B2, “Targeting trastuzumab-resistant HER2+ breast cancer with a HER3-targeting nanoparticle” (priority 2014, dated 2017).
